The values that follow come from ChEMBL document CHEMBL3352662, “Flow synthesis and biological activity of aryl sulfonamides as selective carbonic anhydrase IX and XII inhibitors” (Bioorg Med Chem Lett, 2014).

A value given as a limit tells only on which side of the number the result lay.

Assay [1] has as its target T1, Carbonic anhydrase 2 (Homo sapiens, UniProt P00918). Briefly: Inhibition of CA-2 (unknown origin) after 15 mins by CO2 hydration assay.
Assay [2] addresses T2, Carbonic anhydrase 1 (Homo sapiens, UniProt P00915). Briefly: Inhibition of CA-1 (unknown origin) at 10 uM after 15 mins by CO2 hydration assay.
Target sequence in this assay (P00915 2-261 limits assumed): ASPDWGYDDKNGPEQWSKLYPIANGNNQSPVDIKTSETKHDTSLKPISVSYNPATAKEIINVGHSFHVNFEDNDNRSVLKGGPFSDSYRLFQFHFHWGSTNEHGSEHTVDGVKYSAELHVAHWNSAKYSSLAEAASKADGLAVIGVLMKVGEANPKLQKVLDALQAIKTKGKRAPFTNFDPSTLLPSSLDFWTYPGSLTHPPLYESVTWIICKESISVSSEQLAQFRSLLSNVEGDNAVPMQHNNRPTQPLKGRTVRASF
Assay [3] concerns the target T2, Carbonic anhydrase 1. Put plainly: Inhibition of CA-1 (unknown origin) after 15 mins by CO2 hydration assay.
Target sequence in this assay (P00915 whole entry): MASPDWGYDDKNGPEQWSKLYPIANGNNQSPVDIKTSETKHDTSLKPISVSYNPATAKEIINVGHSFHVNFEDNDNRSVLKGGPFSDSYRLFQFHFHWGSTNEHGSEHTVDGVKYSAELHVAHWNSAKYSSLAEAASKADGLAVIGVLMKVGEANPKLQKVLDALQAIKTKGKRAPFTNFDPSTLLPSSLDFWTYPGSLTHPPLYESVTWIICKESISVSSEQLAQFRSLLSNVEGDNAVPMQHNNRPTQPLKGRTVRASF
The target of another assay is Carbonic anhydrase 9 (Homo sapiens, UniProt Q16790). Briefly: Inhibition of CA-9 (unknown origin) after 15 mins by CO2 hydration assay.
Assay [4] deals with T1, Carbonic anhydrase 2. Briefly: Inhibition of CA-2 (unknown origin) at 10 uM after 15 mins by CO2 hydration assay.
A further assay has as its target Carbonic anhydrase 12 (Homo sapiens, UniProt O43570). Briefly: Inhibition of CA-12 (unknown origin) after 15 mins by CO2 hydration assay.

Carbonic anhydrase 12, sequence (O43570 whole entry): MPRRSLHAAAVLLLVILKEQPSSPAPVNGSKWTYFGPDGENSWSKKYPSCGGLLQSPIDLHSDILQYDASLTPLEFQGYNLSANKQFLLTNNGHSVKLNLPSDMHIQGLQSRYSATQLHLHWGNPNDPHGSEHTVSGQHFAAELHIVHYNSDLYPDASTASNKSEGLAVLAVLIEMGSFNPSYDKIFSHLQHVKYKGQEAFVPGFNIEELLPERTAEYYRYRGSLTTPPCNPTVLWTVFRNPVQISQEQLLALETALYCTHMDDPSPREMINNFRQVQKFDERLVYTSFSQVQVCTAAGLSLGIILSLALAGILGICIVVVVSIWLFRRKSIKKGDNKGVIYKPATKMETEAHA

For the compound `Cc1ccc(S(=O)(=O)Nc2ccccc2)cc1`, the figures for the IC50 at Carbonic anhydrase 2 [1], against Carbonic anhydrase 1 [3] and against Carbonic anhydrase 9 were more than 50 µM, more than 50 µM and 0.09 µM, respectively. The inhibition at Carbonic anhydrase 1 [2] came to 35%; against Carbonic anhydrase 2 [4], 45%.
In the case of `O=[N+]([O-])c1ccc(S(=O)(=O)Nc2ccccc2)cc1`, the IC50 against Carbonic anhydrase 2 [1] was 7.32 µM; at Carbonic anhydrase 1 [3], more than 50 µM; against Carbonic anhydrase 9, 0.128 µM. On Carbonic anhydrase 1 [2], this compound displayed an inhibition of 39%.
In the case of `CCCC(C)NS(=O)(=O)c1ccc(C)cc1` (centres undefined), the IC50 against Carbonic anhydrase 2 [1] is 8.07 µM; at Carbonic anhydrase 1 [3], more than 50 µM; against Carbonic anhydrase 9, 0.07 µM. The compound also displayed an inhibition at Carbonic anhydrase 1 [2] of 40%.
As to `CC(=O)c1ccc(S(=O)(=O)Nc2ccccc2)cc1`, the IC50 against Carbonic anhydrase 2 [1] was more than 50 µM; against Carbonic anhydrase 1 [3], more than 50 µM; on Carbonic anhydrase 9, 0.074 µM. The inhibition against Carbonic anhydrase 1 [2] stood at 36%; at Carbonic anhydrase 2 [4], 47%.
On to `Cc1ccc(S(=O)(=O)Nc2ccccc2-c2ccccc2)cc1`, for which the IC50 is 5.1 µM against Carbonic anhydrase 2 [1], more than 50 µM against Carbonic anhydrase 1 [3], 0.09 µM on Carbonic anhydrase 9 and 0.226 µM on Carbonic anhydrase 12. The inhibition against Carbonic anhydrase 1 [2] turned out to be 38%.
For the compound `Cc1ccc(S(=O)(=O)NCCCN(C)C)cc1`, the IC50 against Carbonic anhydrase 2 [1] is 6.67 µM; at Carbonic anhydrase 1 [3] it was more than 50 µM; on Carbonic anhydrase 9 it was 0.094 µM. This compound also came in with an inhibition against Carbonic anhydrase 1 [2] of 39%.
For `Cc1ccc(S(=O)(=O)NCC(=O)O)cc1`, the values for the IC50 on Carbonic anhydrase 2 [1], against Carbonic anhydrase 1 [3] and at Carbonic anhydrase 9 were 3.62 µM, more than 50 µM and 0.217 µM, respectively. This compound also had an inhibition against Carbonic anhydrase 1 [2] of 39%.
With `COc1ccc(S(=O)(=O)Nc2ccccc2)cc1OC`, the IC50 against Carbonic anhydrase 2 [1] was more than 50 µM; against Carbonic anhydrase 1 [3], more than 50 µM; against Carbonic anhydrase 9 it was 0.079 µM; on Carbonic anhydrase 12, 0.179 µM. Also, the inhibition was found to be 39% at Carbonic anhydrase 1 [2] and 45% on Carbonic anhydrase 2 [4].
For `Cc1ccc(S(=O)(=O)N(C)c2ccccc2)cc1`, the IC50 on Carbonic anhydrase 2 [1] was more than 50 µM; against Carbonic anhydrase 1 [3] it was more than 50 µM; against Carbonic anhydrase 9, 0.093 µM; against Carbonic anhydrase 12 it was 0.266 µM. Besides, the inhibition against Carbonic anhydrase 1 [2] came to 39%; against Carbonic anhydrase 2 [4] it was 45%.
As for `Cc1ccc(S(=O)(=O)NCc2ccccc2)cc1`, the IC50 against Carbonic anhydrase 2 [1] was more than 50 µM; on Carbonic anhydrase 1 [3], more than 50 µM; against Carbonic anhydrase 9, 0.076 µM; against Carbonic anhydrase 12, 4.28 µM. For the same compound, the results for the inhibition on Carbonic anhydrase 1 [2] and against Carbonic anhydrase 2 [4] were 34% and 44%, respectively.

A word on the IC50: it is the point on the concentration scale where inhibition reaches its midpoint. A lower IC50 goes with inhibition by little substance. By inhibition is commonly meant the relative decrease from the control value, in per cent. Higher therefore signals a strong effect.
